# Results published in patent publication US7947695B2, “5-membered annelated heterocyclic pyrimidines as kinase inhibitors” (Janssen Pharmaceutica NV, priority 2005, dated 2011).
# Assays:
# Type in all cases: biochemical
# CDK4/cyclinD1 = CDK4/cyclinD1 (Homo sapiens, UniProt P11802); experiment: In vitro filtration assay for CDK4 inhibitory activity (pRb phosphorylation, [33P]-ATP); conditions: GST-pRb substrate, 1 μM unlabeled ATP, 25° C. 45 minutes, read-out: cdk4 filter (pIC50) (converted)
# Description: (§1) Compounds of the present invention were tested in an in vitro filtration assay assessing CDK4 activity by means of its pRb-phosphorylation activity using [^33P]-ATP as phosphor donor. The radioactive phosphorylated pRb is then captured on filtermats and the incorporated [^33P] quantitated using a phosphorage storage screen.
# The CDK4 kinase reaction is performed at 25° C. for 45 minutes in a 96-well microtiterplate. The 25 μl reaction volume contains 50 mM Hepes pH 7.5, 10 mM NaF, 10 mM MgCl2, 1 mM Na3VO4, 1 μM unlabeled ATP, 1 mM DTT, 0.5 μCi AT^33P, 0.76 μg/well GST-pRb, 50 ng CDK4/cyclinD1/well and 0.2% compound in 100% DMSO.
# (§2) The reaction is stopped by adding 5 μl of a 3% phosphoric acid solution. 10 μl of the reaction mixture is then spotted onto a Filtermat P30 filter (Wallac) and washed 3 times for 5 min. in 75 mM phosphoric acid and 1 time for 5 min. in methanol prior to drying and quantification on the Typhoon (Amersham) using a phosphorage storage screen.
# (§3) For each experiment, controls (containing enzyme (complex) and DMSO without compound), a blank incubation (containing DMSO but no enzyme (complex) or compound) and samples (containing enzyme (complex) and compound dissolved in DMSO) were run in parallel. All compounds tested were dissolved and eventually further diluted in DMSO. […] In each test, the blank value was subtracted from both the control and the sample values. The control sample represented maximal enzyme activity. For each sample, the amount of cpm was expressed as a percentage of the mean cpm value of the controls. When appropriate, IC50-values (concentration of the drug, needed to reduce the enzyme activity to 50% of the control) were computed using linear interpolation between the experimental points just above and below the 50% level. Herein the effects of test compounds are expressed as pIC50 (the negative log value of the IC50-value).
# AURORA A = biological target: T1, AURORA A (Homo sapiens, UniProt O14965); experiment: In vitro filtration assay for AURORA A inhibitory activity; conditions: Kemptide substrate, 1 μM unlabeled ATP, 25° C. 40 minutes, read-out: Aurora A see C.2 (pIC50) (converted)
# T1 sequence (O14965 1-403): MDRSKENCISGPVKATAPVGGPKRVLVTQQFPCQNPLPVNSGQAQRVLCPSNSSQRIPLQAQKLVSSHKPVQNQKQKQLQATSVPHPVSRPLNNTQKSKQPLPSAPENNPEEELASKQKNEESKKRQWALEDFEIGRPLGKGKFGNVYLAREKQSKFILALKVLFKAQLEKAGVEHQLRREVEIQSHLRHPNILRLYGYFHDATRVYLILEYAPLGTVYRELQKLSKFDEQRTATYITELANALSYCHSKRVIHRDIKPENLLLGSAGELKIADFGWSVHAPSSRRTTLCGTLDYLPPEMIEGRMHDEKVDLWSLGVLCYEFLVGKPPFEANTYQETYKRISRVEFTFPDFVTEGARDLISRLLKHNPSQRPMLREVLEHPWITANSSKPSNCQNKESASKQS
# Description: as §1, with “AURORA A” for “CDK4”, “substrate-phosphorylation” for “pRb-phosphorylation”, “substrate” for “pRb”
# The Aurora-A kinase reaction is performed at 25° C. for 40 minutes in a 96-well microtiterplate. The 25 μl reaction volume contains 12 mM MOPS pH 7, 0.4 mM EDTA, 0.002% Brij35, 1% glycerol, 0.02% beta-mercapto-ethanol, 0.2 mg/ml BSA, 1 μM unlabeled ATP, […] [^33P]-ATP, 200 μM Kemptide, 3 ng Aurora A/well and 0.2% compound in 100% DMSO.
# as §2, §3
# AURORA B = AURORA B (Homo sapiens, UniProt Q96GD4); experiment: In vitro filtration assay for AURORA B inhibitory activity; conditions: peptide (C(LRRWSLG)×4), 1 μM unlabeled ATP, 25° C. 40 minutes, read-out: Aurora B see C.3 (pIC50) (converted)
# Description: as §1, with “AURORA B” for “CDK4”, “substrate-phosphorylation” for “pRb-phosphorylation”, “substrate” for “pRb”
# The Aurora-B kinase reaction is performed at 25° C. for 40 minutes in a 96-well microtiterplate. The 25 μl reaction volume contains 60 mM Hepes pH 7.5, 3 mM MgCl2, 3 mM MnCl2, 3 μM Na3VO4, 50 μg/ml PEG20000, 1 μM unlabeled ATP, 1 mM DTT, 0.2 μCi AT^33P, 0.25 μg/well peptide (C(LRRWSLG)×4),100 ng Aurora-B/well and 0.2% compound in 100% DMSO. The reaction is stopped by adding 5 μl of a 3% phosphoric acid solution. 10 μl of the reaction mixture is then spotted onto a Filtermat P30 filter (Wallac) and washed 3 times for 5 min. in 75 mM phosphoric acid and 1 time for 5 min. in methanol prior to drying and quantification on the Typhoon (Amersham) using a phosphorage storage screen.
# as §3
# Chain of AURORA B (Q96GD4 whole entry): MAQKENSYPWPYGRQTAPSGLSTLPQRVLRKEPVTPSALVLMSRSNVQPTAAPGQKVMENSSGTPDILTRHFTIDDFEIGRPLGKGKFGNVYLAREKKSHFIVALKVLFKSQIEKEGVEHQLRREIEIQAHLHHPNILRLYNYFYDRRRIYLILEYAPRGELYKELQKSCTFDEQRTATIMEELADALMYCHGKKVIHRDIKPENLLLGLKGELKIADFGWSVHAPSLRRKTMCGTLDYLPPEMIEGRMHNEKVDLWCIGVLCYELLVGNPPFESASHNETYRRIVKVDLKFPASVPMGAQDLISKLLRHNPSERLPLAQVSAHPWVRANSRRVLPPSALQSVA
# Chain of CDK4/cyclinD1 (P11802 whole entry): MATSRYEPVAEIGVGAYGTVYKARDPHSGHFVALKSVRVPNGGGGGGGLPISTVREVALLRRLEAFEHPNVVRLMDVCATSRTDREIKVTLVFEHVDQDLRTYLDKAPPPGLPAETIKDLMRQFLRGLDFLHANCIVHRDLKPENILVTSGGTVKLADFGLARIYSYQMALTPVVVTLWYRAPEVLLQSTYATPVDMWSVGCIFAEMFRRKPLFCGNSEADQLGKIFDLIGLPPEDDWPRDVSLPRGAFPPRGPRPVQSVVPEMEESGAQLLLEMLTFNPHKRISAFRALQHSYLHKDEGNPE
# Chain of CDK4/cyclinD1 (P24385 whole entry partner): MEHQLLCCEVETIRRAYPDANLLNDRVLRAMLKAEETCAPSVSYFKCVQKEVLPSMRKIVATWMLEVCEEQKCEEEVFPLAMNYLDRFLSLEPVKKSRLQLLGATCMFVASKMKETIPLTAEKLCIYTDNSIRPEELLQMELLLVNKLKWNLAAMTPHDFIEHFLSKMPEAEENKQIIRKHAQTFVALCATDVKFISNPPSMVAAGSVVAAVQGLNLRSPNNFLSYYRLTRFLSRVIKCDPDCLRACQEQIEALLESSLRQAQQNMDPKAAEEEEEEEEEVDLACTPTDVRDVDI
IC50 (CDK4/cyclinD1),IC50 (AURORA A),IC50 (AURORA B),Compound
398 nM,200 nM,–,COCCCC(=O)N1CCN(Cc2ccc(Nc3ncc4cnn(C5CCCCC5)c4n3)cc2)CC1 [compound 45]
12.6 nM,1000 nM,2000 nM,CC(C)(O)CN1CCN(Cc2ccc(Nc3ncc4cnn(C5CCCCC5)c4n3)cc2)CC1 [compound 38]
6.31 nM,501 nM,> 10000 nM,CN1CCN(C(=O)c2ccc(Nc3ncc4cnn(C5CCCCC5)c4n3)cc2)CC1 [Co. No. 3]
1580 nM,6310 nM,> 10000 nM,CN1CCN(Cc2ccc(N(C(=O)OC(C)(C)C)c3ncc4cnn([C@H]5C[C@@H]6CC[C@H]5C6)c4n3)cc2)CC1 [compound 39]
12.6 nM,501 nM,> 10000 nM,OC1CCN(c2ccc(Nc3ncc4cnn(C5CCCCC5)c4n3)cc2)CC1 [compound 20]
2510 nM,5010 nM,> 10000 nM,c1cc(Nc2ncc3cnn(C4CCOCC4)c3n2)ccc1CNCCN1CCOCC1 [compound 71]
> 10000 nM,3160 nM,> 10000 nM,O=c1[nH]c2cnc(Nc3ccc(S(=O)(=O)N4CCOCC4)cc3)nc2n1C1CCCCC1 [compound 85]
> 10000 nM,> 10000 nM,> 10000 nM,CC(C)(C)OC(=O)N(c1ccc(CN2CCN(CCO)CC2)cc1)c1ncc2cnn(C3CCOCC3)c2n1 [compound 55]
2510 nM,> 10000 nM,> 10000 nM,CN1CCN(C(=O)c2ccc(Nc3ncc4[nH]c(=O)n(C5CCCCC5)c4n3)cc2)CC1 [compound 83]
39.8 nM,200 nM,3160 nM,NS(=O)(=O)N1CCN(c2ccc(Nc3ncc4cnn(C5CCCCC5)c4n3)cc2)CC1 [compound 21]
316 nM,1580 nM,–,COCCCN1CCN(c2ccc(Nc3ncc4c(n3)N(C3CCCCC3)C(=O)C4)cc2)CC1 [compound 90]
> 10000 nM,> 10000 nM,> 10000 nM,CN1CCC(NCc2ccc(N(C(=O)OC(C)(C)C)c3ncc4cnn(C5CCOCC5)c4n3)cc2)CC1 [compound 72]
7.94 nM,200 nM,398 nM,OCCN1CCN(Cc2ccc(Nc3ncc4cnn(C5CCCCC5)c4n3)cc2)CC1 [Co. No. 37]
3.16 nM,501 nM,> 10000 nM,CN1CCN(Cc2ccc(Nc3ncc4cnn(C5CCCCC5)c4n3)cc2)CC1 [Co. No. 2]
63.1 nM,126 nM,3980 nM,COCCCN1CCN(Cc2ccc(Nc3ncc4cnn(C5CCCCC5)c4n3)cc2)CC1 [compound 43]
126 nM,251 nM,3160 nM,CC(C)(O)CN1CCN(c2ccc(Nc3ncc4cnn(C5CCCCC5)c4n3)cc2)CC1 [compound 24]
126 nM,1580 nM,1260 nM,OCCN1CCC(NCc2ccc(Nc3ncc4cnn(C5CCCCC5)c4n3)cc2)CC1 [compound 75]
6310 nM,> 10000 nM,> 10000 nM,CC(C)(C)OC(=O)N1CCN(c2ccc(Nc3ncc4cnn(C5CCCCC5)c4n3)nc2)CC1 [compound 29]
631 nM,15.8 nM,7940 nM,c1cc(Nc2ncc3cnn(C4CCCCC4)c3n2)ccc1CN1CCOCC1 [compound 33]

IC50 (CDK4/cyclinD1),IC50 (AURORA A),IC50 (AURORA B),Compound
251 nM,1580 nM,1000 nM,c1cc(Nc2ncc3cnn(C4CCCCC4)c3n2)ccc1CNC1CCOCC1 [compound 67]
794 nM,126 nM,631 nM,O=C(NC1CCOCC1)c1ccc(Nc2ncc3cnn(C4CCCCC4)c3n2)cc1 [compound 95]
1000 nM,6310 nM,7940 nM,CN1CCC(NCc2ccc(N(C(=O)OC(C)(C)C)c3ncc4cnn([C@H]5C[C@@H]6CC[C@H]5C6)c4n3)cc2)CC1 [compound 68]
631 nM,6310 nM,> 10000 nM,CN1CCN(c2ccc(Nc3ncc4[nH]c(=O)n(C5CCCCC5)c4n3)cc2Cl)CC1 [compound 84]
631 nM,126 nM,1260 nM,CC(C)(O)CN1CCN(C(=O)c2ccc(Nc3ncc4cnn(C5CCCCC5)c4n3)cc2)CC1 [compound 58]
3980 nM,2510 nM,> 10000 nM,CC(=O)N1CCN(c2ccc(Nc3ncc4[nH]c(=O)n(C5CCCCC5)c4n3)cc2)CC1 [compound 80]
6310 nM,> 10000 nM,> 10000 nM,CC(C)(C)OC(=O)N(c1ccc(CNCCN2CCOCC2)cc1)c1ncc2cnn([C@H]3C[C@@H]4CC[C@H]3C4)c2n1 [compound 64]
200 nM,501 nM,501 nM,c1cc(Nc2ncc3cnn([C@H]4C[C@@H]5CC[C@H]4C5)c3n2)ccc1CNCCN1CCOCC1 [compound 65]
20 nM,794 nM,> 10000 nM,c1cc(N2CCOCC2)ncc1Nc1ncc2cnn(C3CCCCC3)c2n1 [compound 17]
31.6 nM,–,–,CC(C)(O)C(=O)N1CCN(c2ccc(Nc3ncc4cnn(C5CCCCC5)c4n3)cc2)CC1 [compound 31]
100 nM,251 nM,> 10000 nM,CN1CCN(Cc2ccc(Nc3ncc4cnn([C@H]5C[C@@H]6CC[C@H]5C6)c4n3)cc2)CC1 [compound 36]
63.1 nM,158 nM,> 10000 nM,NS(=O)(=O)N1CCN(Cc2ccc(Nc3ncc4cnn(C5CCCCC5)c4n3)cc2)CC1 [compound 34]
631 nM,> 10000 nM,> 10000 nM,CN1CCC(NCc2ccc(Nc3ncc4cnn(C5CCOCC5)c4n3)cc2)CC1 [compound 73]
2510 nM,5010 nM,> 10000 nM,O=c1[nH]c2cnc(Nc3ccc(CNC4CCNCC4)cc3)nc2n1C1CCCCC1 [compound 86]
631 nM,100 nM,1260 nM,O=C(NCCN1CCOCC1)c1ccc(Nc2ncc3cnn(C4CCCCC4)c3n2)cc1 [compound 96]
15.8 nM,251 nM,1260 nM,c1cc(N2CCNCC2)ccc1Nc1ncc2cnn(C3CCCCC3)c2n1 [compound 26]
398 nM,316 nM,–,CC(C)(O)CN1CCC(NC(=O)c2ccc(Nc3ncc4cnn(C5CCCCC5)c4n3)cc2)CC1 [compound 98]
1260 nM,1260 nM,–,CN1CCN(Cc2ccc(Nc3ncc4cnn(C5CCOCC5)c4n3)cc2)CC1 [compound 49]
7940 nM,–,> 10000 nM,CC(C)(C)OC(=O)N(c1ccc(CNC2CCOCC2)cc1)c1ncc2cnn(C3CCCCC3)c2n1 [compound 66]
